{
  "source": "patent US20260217701A1",
  "about": "“SELECTIVE BET INHIBITORS AND USES THEREOF” (Tay Therapeutics Limited, priority 2022, published 2026)",
  "key": {"BET BD2": {"system": "BET BD2", "conditions": "public sources, not a head-to-head trial, cited from earlier work; for BD2: comparator BET inhibitors"}, "[1]": {"test": "UUO study: plasma concentration of Compound A", "type": "in vivo, rats", "conditions": "for concentration at 4 h: rat, plasma, oral, 10 mg/kg"}, "lupus": {"system": "lupus", "test": "SLE (lupus) model: kidney histology lesion scores", "type": "in vivo, MRL/MpJ-Faslpr mice", "conditions": "for Total Glomerular Lesion (mean score) / Total Glomerular Lesion (table title: Mean Total Kidney Lesion Scores) / Total Tubular and Interstitial Lesion (mean score) / Mean total glomerular lesion score / Mean total kidney lesion score / Mean total tubular and interstitial lesion score: Week 19", "protocol": "Female MRL/MpJ-Faslpr mice (The Jackson Laboratory) were used to assess the efficacy of Compound A in treating lupus. Starting when animals were 10 weeks of age, protein concentration in urine was measured using urine dipsticks.\nAt the start of the study, each group in the study had two animals that were 9 weeks old, and all others were 10 weeks old. Dosing of all animals with the test compounds began when the older animals were 11 weeks old. […] […] Dosing was at a consistent time each dosing day throughout the study.\nCompound A may be formulated as illustrated in Experimental Method A (see Table 2E.). […] A stock solution of Compound A in DMSO (stock solution concentration of Compound A of 40 mg/mL) was prepared and aliquots for weekly preparations were frozen at −20° C. On each preparation day, a stock solution aliquot was thawed and diluted with other vehicle components to the desired concentration. Formulated Compound A and vehicle were at room temperature for dosing.\nThe study began when the older animals were 11 weeks old, and concluded when the older animals were 19 weeks old. Body weight was recorded once a week, with the exception of two weight measurements taken the first week of the study (when the older animals were 11 weeks old). Proteinuria was measured in the urine of animals with urine dipsticks once a week, starting when the older animals were 10 weeks old. […] Blood samples were taken retro-orbitally at the start of the study to establish a baseline (15 animals, 3 per group), and when the older animals were 16 weeks (all animals) and when animals were 19 weeks (all animals) at the conclusion of the study. Blood urea nitrogen (BUN) was measured in all animals at study termination in blood samples. After blood collection, animals were euthanized, perfused with PBS, and the left kidneys were collected and weighed and fixed in 10% buffered formalin. Left kidneys were then processed to a formalin-fixed, paraffin-embedded (FFPE) block, and histology was analyzed in Periodic Acid-Schiff-stained sections (1 section per slide), using the criteria described in Alperovich et al., Lupus, 16:18-24 (2007). Right kidneys were weighed and snap-frozen at −80° C. Spleens were also collected and weighed. SLE in animals treated with a BET inhibitor and vehicle."}, "anti-collagen IgG1": {"system": "anti-collagen IgG1", "test": "CIA model: rat anti-collagen IgG1 levels", "type": "in vivo, Lewis rats", "parameters": "Average rat anti-collagen IgG1 levels, Mean: unit not given here"}},
  "note": "Several values for one entry are separate records, joined by “and”; a condition that tells them apart may be missing. Identical values can stand only once. Like-named read-outs stand apart in the source and are kept apart here. Marks after values point to notes of the source that are not given here.",
  "data": [
    {"smiles": "CCNC(=O)c1cc2c(-c3cc(C(C)(C)O)ccc3Oc3c(C)cc(F)cc3C)cn(C)c(=O)c2[nH]1", "note": "[ABBV-744]", "values": [
      {"measurement": "Selectivity (BD1/BD2)", "setting": "BET BD2; FRET, comparator", "result": "753x (FRET)"},
      {"measurement": "BD2", "setting": "BET BD2", "result": 28, "unit": "nM"}
    ]},
    {"smiles": "Cn1cc(-c2ccccc2)c(-c2cn(C)c(=O)c3[nH]c(-c4cnn(C(F)(F)F)c4)cc23)cc1=O", "note": "[Compound A, 6-methyl-4-(1-methyl-2-oxo-5-phenyl-1,2-dihydropyridin-4-yl)-2-(1-(trifluoromethyl)-1H-pyrazol-4-yl)-1,6-dihydro-7H-pyrrolo[2,3-c]pyridin-7-one]", "values": [
      {"measurement": "Concentration", "setting": "[1]; UUO + Compound A, male SD rats, time 4 h, individual Test Subjects 1-8", "result": "220 ng/mL and 318 ng/mL and 133 ng/mL and 215 ng/mL and 132 ng/mL and 194 ng/mL and 198 ng/mL and 195 ng/mL"},
      {"measurement": "concentration at 4 h", "setting": "[1]; male, Sprague-Dawley, UUO + Compound A, male SD rats, time 4 h, mean of 8 test subjects, read-out: Concentration, Mean", "result": 201, "unit": "ng/mL"},
      {"measurement": "concentration at 4 h", "setting": "[1]; po, four hours after final treatment, read-out: Mean plasma concentration", "result": 201, "unit": "ng/mL"},
      {"measurement": "Total Glomerular Lesion (mean score)", "setting": "lupus; Compound A 1 mg/kg PO QD", "result": 3.9},
      {"measurement": "Total Glomerular Lesion (table title: Mean Total Kidney Lesion Scores)", "setting": "lupus; Compound A 1 mg/kg PO QD", "result": 5.1},
      {"measurement": "Total Tubular and Interstitial Lesion (mean score)", "setting": "lupus; Compound A 1 mg/kg PO QD", "result": 1.2},
      {"measurement": "Total Glomerular Lesion (mean score)", "setting": "lupus; Compound A 3 mg/kg PO QD", "result": 2.7},
      {"measurement": "Total Glomerular Lesion (table title: Mean Total Kidney Lesion Scores)", "setting": "lupus; Compound A 3 mg/kg PO QD", "result": 3.8},
      {"measurement": "Total Tubular and Interstitial Lesion (mean score)", "setting": "lupus; Compound A 3 mg/kg PO QD", "result": 1.1},
      {"measurement": "Total Glomerular Lesion (mean score)", "setting": "lupus; Compound A 10 mg/kg PO QD", "result": 1.1},
      {"measurement": "Total Glomerular Lesion (table title: Mean Total Kidney Lesion Scores)", "setting": "lupus; Compound A 10 mg/kg PO QD", "result": 1.6},
      {"measurement": "Total Tubular and Interstitial Lesion (mean score)", "setting": "lupus; Compound A 10 mg/kg PO QD", "result": 0.5},
      {"measurement": "Mean total glomerular lesion score", "setting": "lupus; 1 mg/kg", "result": "about 3.9"},
      {"measurement": "Mean total kidney lesion score", "setting": "lupus; 1 mg/kg", "result": "about 5.1"},
      {"measurement": "Mean total tubular and interstitial lesion score", "setting": "lupus; 1 mg/kg", "result": "about 1.2"},
      {"measurement": "Mean total glomerular lesion score", "setting": "lupus; 3 mg/kg", "result": "about 2.7"},
      {"measurement": "Mean total kidney lesion score", "setting": "lupus; 3 mg/kg", "result": "about 3.8"},
      {"measurement": "Mean total tubular and interstitial lesion score", "setting": "lupus; 3 mg/kg", "result": "about 1.1"},
      {"measurement": "Mean total glomerular lesion score", "setting": "lupus; 10 mg/kg", "result": "about 1.1"},
      {"measurement": "Mean total kidney lesion score", "setting": "lupus; 10 mg/kg", "result": "about 1.6"},
      {"measurement": "Mean total tubular and interstitial lesion score", "setting": "lupus; 10 mg/kg", "result": "about 0.5"},
      {"measurement": "Kidney histology images (FIGS. 30H-30L), disease suppression", "setting": "lupus; increasing dosage", "result": "dose dependent improvement in disease suppression"},
      {"measurement": "Average rat anti-collagen IgG1 levels, Mean", "setting": "anti-collagen IgG1; Group 5 (CIA + Compound A 1 mg/kg)", "result": "1180.61**"},
      {"measurement": "Average rat anti-collagen IgG1 levels, Mean", "setting": "anti-collagen IgG1; Group 6 (CIA + Compound A 3 mg/kg)", "result": "569.60**"},
      {"measurement": "Average rat anti-collagen IgG1 levels, Mean", "setting": "anti-collagen IgG1; Group 7 (CIA + Compound A 10 mg/kg)", "result": "220.15**"},
      {"measurement": "Inhibition of IgG1", "setting": "anti-collagen IgG1; all three doses", "result": "near complete inhibition of IgG1"}
    ]},
    {"smiles": "C[C@@H]1C[C@H]2[C@@H]3CCC4=CC(=O)C=C[C@]4(C)[C@@]3(F)[C@@H](O)C[C@]2(C)[C@@]1(O)C(=O)CO", "note": "[Dexamethasone, dexamethasone]", "values": [
      {"measurement": "Average rat anti-collagen IgG1 levels, Mean", "setting": "anti-collagen IgG1; Group 3 (CIA + Dexamethasone)", "result": "7833.69*"}
    ]},
    {"smiles": "CNC(=O)c1cc(C(=O)NC2CC2)cn(Cc2ccccc2)c1=O", "note": "[GSK620]", "values": [
      {"measurement": "BD2", "setting": "BET BD2", "result": 79, "unit": "nM"}
    ]}
  ]
}
